# From patent US20250281462A1, “THERAPEUTICALLY EFFECTIVE ORAL ADMINISTRATION OF A 2 ARYLBENZIMIDAZOLE” (Tranquis Therapeutics, Inc., priority 2021, published 2025)
# Where “and” joins values, the source holds several entries; their conditions need not be identical. Equal values may be shown once. Entries after “also recorded” stand apart in the source; their conditions may differ.
# What was measured:
# TNFα [1] = test: LPS-stimulated TNFα secretion from human PBMCs (ELISA); type: cell-based; conditions: LPS 1 ng/mL, 24 h
# Procedure: The principal metabolites from liver metabolism of TQS-168 following oral administration have been described. See Sun et al., Rapid Commun. Mass Spectrom. 32:480-488 (2018), incorporated herein by reference. We synthesized the phase 1 metabolites from liver metabolism of TQS-168 illustrated in FIG. 20 and tested them for the ability to inhibit LPS-stimulated secretion of pro-inflammatory cytokines in vitro.
# Briefly, 20,000 human PBMC were aliquoted into each well. LPS was added at 1 ng/mL and the cells incubated for 24 h in the presence of LPS and TQS-168 or one of its metabolites. Readouts were human IL-6 ELISA and human TNFα ELISA. For assay, supernatants were diluted in culture medium. The supernatant dilution for the IL-6 ELISA was 1:8, and the 1:2 for the human TNFα ELISA.
# clinical [2] = conditions: male, human, in vivo, po; for half-life: T1/2
# clinical [3] = conditions: male, human, in vivo, 120 mg
# older mice = conditions: oral 25 mg/kg; cited from earlier work
# TNFα [4] = test: LPS-induced TNFα secretion from BV2 cells (CBA assay); type: cell-based, murine; conditions: for suppression of TNFα production vs control: 100 ng/mL LPS 24 hours
# Procedure: Lipopolysaccharide (LPS) is a natural ligand of the TLR4/CD14 complex, which is highly expressed on myeloid cells
# LPS was used to induce cytokine secretion from BV-2 cells. Cells were incubated with TQS-168 at various concentrations to assess whether TQS-168 could suppress the LPS-promoted release of various cytokines from in vitro cell cultures. Cytokine secretion was measured by cytometric bead array (CBA) fluorescence-activated cell sorting (FACS).
# Briefly, a vial of BV2 frozen stock (1 million cells per ml in complete medium) was thawed into 10 mL of complete medium per vial for a total of 4 vials. The vials were then centrifuged at 1800 rpm for 3 minutes to wash away freezing media. The four vials were then pooled into 25 mL of complete medium. TQS-168 was prepared in DMSO.
# Cells were incubated for 24 hours in the presence of medium (negative control), LPS (positive control), DMSO+LPS (positive control, controlling additionally for presence of DMSO in the TQS-168 stock solution), or LPS+TQS-168 at final concentrations of 1 μM, 5 μM, 10 μM, and 20 μM.
# After the well plates were incubated overnight for 24 hours, they were centrifuged at 1800 rpm for 5 minutes. Next, 150 μl from each well was transferred to a new set of plates, of which 50 μl was used for CBA. The plates were then centrifuged with the cells, followed by addition of 100 μL of DAPI (50 ml of PBS+10 μL of DAPI stock at 1:5000 dilution). The plates were then incubated in the dark for 5 minutes, followed by addition of 100 μL of PBS and centrifuged at 1800 rpm for 5 minutes. Finally, the plates were resuspended in 200 μL of PBS and tested.
# Multiplexed cytometric bead array (CBA) assay was performed according to standard techniques to detect presence in the cell culture medium of secreted murine TNFα, IL-6, IFNγ, IL-12, monocyte chemoattractant protein 1 (MCP-1), and IL-10.
# A total of 4-11 replicates of BV2 cultures in different conditions were investigated. […]
# [5] = tested on: murine models of neurodegenerative diseases; conditions: mice, oral 25-50 mg/kg; Parkinson's disease, Alzheimer's disease, ALS models; cited from earlier work
# [6] = Plasma and brain concentrations after single oral dose in rats; type: in vivo; conditions: both sexes, Sprague-Dawley, rat, rats plasma, suspension; for AUC(0-t): plasma, po
# Procedure: Both male (n=3) and female (n=3) Sprague-Dawley rats were administered a single dose of TQS-168 by oral gavage at 50, 150, or 500 mg/kg of TQS-168. TQS-168 was prepared as a suspension with 0.5% methylcellulose in PBS.
# Plasma samples were collected at 30, 60, 120, 240, and 1440 minutes after administration. Brain samples were collected in some animals at 60, 240, and 1440 minutes after the single oral dose of TQS-168 at 500 mg/kg. Samples were processed for LC-MS analysis of TQS-168 concentrations.
# Cmax and AUC0-t values from the plasma tissues were calculated using PKSolver (Compute Methods Programs Biomed. 2010 September; 99(3):306-14. doi: 10.1016j.cmpb.2010.01.007. Epub 2010 Feb. 21) with the underlying data plotted FIG. 12a.
compound,measurement,setting,value
CC(C)(C)c1ccc(-c2nc3cc(O)ccc3[nH]2)cc1 [TQS-621],inhibition of LPS-stimulated TNFα secretion,TNFα [1],potently inhibits; also recorded: potent inhibitor
same,AUC(0-t),"clinical [2]; 60 mg, AUC(0-24)",383 ng·h/mL
same,AUC(0-inf),clinical [2]; 60 mg,410 ng·h/mL
same,AUC(0-t),"clinical [2]; 60 mg, AUC(0-last)",401 ng·h/mL
same,Cmax,clinical [2]; 60 mg,65.3 ng/mL and 250 nM
same,half-life,clinical [2]; 60 mg,4.89 h
same,Tmax,clinical [2]; 60 mg,2.5 h
same,AUC(0-t),"clinical [2]; 90 mg, AUC(0-24)",1170 ng·h/mL
same,AUC(0-inf),clinical [2]; 90 mg,1200 ng·h/mL
same,Cmax,clinical [2]; 90 mg,214 ng/mL and 800 nM
same,half-life,clinical [2]; 180 mg,9.1 h
same,Tmax,clinical [2]; 180 mg,1.5 h
same,AUC(0-t),"clinical [2]; 270 mg, AUC(0-24)",4250 ng·h/mL
same,AUC(0-inf),clinical [2]; 270 mg,4950 ng·h/mL
same,AUC(0-t),"clinical [2]; 270 mg, AUC(0-last)",4760 ng·h/mL
same,Cmax,clinical [2]; 270 mg,2330 nM
same,half-life,clinical [2]; 270 mg,10.4 h
same,Tmax,clinical [2]; 270 mg,2 h
same,AUC(0-t),"clinical [2]; 540 mg, AUC(0-24)",10800 ng·h/mL
same,AUC(0-inf),clinical [2]; 540 mg,12700 ng·h/mL
same,AUC(0-t),"clinical [2]; 540 mg, AUC(0-last)",12000 ng·h/mL
same,Cmax,clinical [2]; 540 mg,1110 ng/mL and 4.17 µM
same,half-life,clinical [2]; 540 mg,11.3 h
same,Tmax,clinical [2]; 540 mg,4 h
same,half-life,clinical [3],10.2 h
same,AUC,clinical [3]; AUC(0-tau),2270 ng·h/mL
same,Cmax,clinical [3]; Cmax,331 ng/mL and 1.24 µM
same,Tmax,clinical [3]; Tmax,1.5 h
same,Tmax,clinical [3]; Tmax (median),1.75 h
same,Tmax,"clinical [3]; po, Tmax (median)",1.5 h
"CC(C)(C)c1ccc(-c2nc3ccccc3[nH]2)cc1 [TQS-168, 2-(4-tert-butylphenyl)-1H-benzimidazole]",behavioral dysfunction,older mice,alleviate behavioral dysfunction
same,inflammatory cytokine production in microglia,older mice,inhibit inflammatory cytokine production in microglia
same,metabolic dysfunction in microglia,older mice,suppress metabolic dysfunction in microglia
same,systemic inflammation,older mice,suppress systemic inflammation
same,suppression of TNFα production vs control,TNFα [4]; 5 μM,can suppress TNFα production; also recorded: inhibition of TNFα production
same,suppression of TNFα production vs control,TNFα [4]; 20 μM,can suppress TNFα production; also recorded: inhibition of TNFα production
same,"reduction of LPS-induced TNFα secretion, dose response",TNFα [4]; 1-20 μM,concentration-dependent; also recorded: dose-responsive inhibition
same,myeloid-mediated inflammation and disease severity,[5],suppress myeloid-mediated inflammation and reduce disease severity
same,AUC(0-t),"[6]; 50 mg/kg, 50 mg/kg single oral dose",833 ng·h/mL
same,AUC(0-t),"[6]; 150 mg/kg, 150 mg/kg single oral dose",1830 ng·h/mL
same,AUC(0-t),"[6]; 500 mg/kg, 500 mg/kg single oral dose",3330 ng·h/mL
same,Cmax,[6]; 50 mg/kg single oral dose,60 ng/mL
same,Cmax,[6]; 150 mg/kg single oral dose,120 ng/mL
same,Cmax,[6]; 500 mg/kg single oral dose,170 ng/mL
